# Target: T1, TLR7 (Homo sapiens, UniProt Q9NYK1)
# T1 sequence (Q9NYK1 27-1049): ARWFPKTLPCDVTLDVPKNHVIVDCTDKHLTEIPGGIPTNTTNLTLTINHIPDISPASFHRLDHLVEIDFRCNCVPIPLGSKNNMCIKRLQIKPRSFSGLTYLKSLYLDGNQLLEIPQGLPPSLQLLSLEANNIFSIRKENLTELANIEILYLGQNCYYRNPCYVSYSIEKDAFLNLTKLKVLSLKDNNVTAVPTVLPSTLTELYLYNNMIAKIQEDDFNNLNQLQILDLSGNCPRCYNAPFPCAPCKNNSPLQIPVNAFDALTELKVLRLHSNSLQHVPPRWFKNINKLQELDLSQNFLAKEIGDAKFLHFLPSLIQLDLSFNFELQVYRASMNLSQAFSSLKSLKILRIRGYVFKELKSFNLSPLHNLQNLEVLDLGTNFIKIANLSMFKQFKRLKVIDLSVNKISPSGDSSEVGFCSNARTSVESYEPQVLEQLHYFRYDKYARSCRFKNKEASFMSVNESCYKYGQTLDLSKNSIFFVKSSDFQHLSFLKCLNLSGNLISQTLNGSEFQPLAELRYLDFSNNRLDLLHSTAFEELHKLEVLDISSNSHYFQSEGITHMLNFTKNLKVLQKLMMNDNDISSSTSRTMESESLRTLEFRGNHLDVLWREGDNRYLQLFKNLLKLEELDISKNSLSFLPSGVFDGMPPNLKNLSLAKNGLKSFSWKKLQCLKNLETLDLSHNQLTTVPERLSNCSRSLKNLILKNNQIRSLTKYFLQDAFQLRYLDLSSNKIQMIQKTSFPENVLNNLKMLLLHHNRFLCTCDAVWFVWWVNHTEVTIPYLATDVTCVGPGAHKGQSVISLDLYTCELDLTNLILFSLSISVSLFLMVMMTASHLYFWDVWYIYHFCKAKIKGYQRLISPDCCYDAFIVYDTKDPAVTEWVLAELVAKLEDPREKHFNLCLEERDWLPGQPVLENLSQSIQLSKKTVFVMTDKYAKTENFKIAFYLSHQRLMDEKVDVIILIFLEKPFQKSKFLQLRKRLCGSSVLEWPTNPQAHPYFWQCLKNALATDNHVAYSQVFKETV
# Assay: Dose-response relationship between antagonist and R848, human TLR7 reporter gene assay
# Type: cell-based
# Design: host or cells: HEK293 (TLR7/NF-κB/SEAPorter)
# Description: Compounds were dissolved in dimethyl sulfoxide. Human TLR7 reporter cell line (Novus Biological) were seeded in 96-well microtiter plate (AGC techno glass) at 5 × 10^4 cells/well in DMEM (GIBCO) with 10% fetal bovine serum (GIBCO), and 10 μg ml^−1 Blastcidin S HCl (GIBCO) and incubated at 37 °C in 5% CO2. The plates were incubated over-night and then addition with various concentrations of compound. After 30 min, R848 (human TLR7/8 ligand) that was diluted with the medium was added, wherein final concentration was adjusted to 0.01, 0.03, 0.1, 0.3, 1, 3, 10, 30, 100, 300 and 1000 μM. The plates were then incubated an additional 20 ± 1 h at 37 °C in 5% CO2, and then the SEAP activity was measured as activation of human TLR7. The SEAP activity was evaluated as follows: pNPP (Invitrogen) was added to the incubated sample (50 μl/well); after 15 min, 4 mol l^−1 sodium hydroxide solution (nacalai tesque) was added thereto (50 μl/well) to quench the reaction; and the absorbance of each sample was measured at 405 nm with microplate reader SpectraMax M4 (Molecular Devices).
compound,measurement,setting,value
CCOc1nc(N)c2nc(-c3cncc(F)c3)n(Cc3ccc(CN4C[C@@H]5C[C@H]4CN5C)cc3)c2n1 [Cpd-6],mode of action against R848,,acted as antagonists
same,TLR7 reporter signal,"Cpd-6 0.001 µM, log10[R848 (µM)] 0",12.4492
same,TLR7 reporter signal,"Cpd-6 0.001 µM, log10[R848 (µM)] 0.477121",42.5203
same,TLR7 reporter signal,"Cpd-6 0.001 µM, log10[R848 (µM)] 1",87.7267
same,TLR7 reporter signal,"Cpd-6 0.001 µM, log10[R848 (µM)] 1.47712",99.7073
same,TLR7 reporter signal,"Cpd-6 0.001 µM, log10[R848 (µM)] 2",100.849
same,TLR7 reporter signal,"Cpd-6 0.001 µM, log10[R848 (µM)] 2.47712",102.716
same,TLR7 reporter signal,"Cpd-6 0.001 µM, log10[R848 (µM)] 3",99.4752
same,TLR7 reporter signal,"Cpd-6 0.001 µM, log10[R848 (µM)] -0.522879",1.192
same,TLR7 reporter signal,"Cpd-6 0.001 µM, log10[R848 (µM)] -1",0.7791
same,TLR7 reporter signal,"Cpd-6 0.001 µM, log10[R848 (µM)] -1.52288",0.2957
same,TLR7 reporter signal,"Cpd-6 0.001 µM, log10[R848 (µM)] -2",-0.1404
same,TLR7 reporter signal,"Cpd-6 0.003 µM, log10[R848 (µM)] 0",9.923
same,TLR7 reporter signal,"Cpd-6 0.003 µM, log10[R848 (µM)] 0.477121",37.8265
same,TLR7 reporter signal,"Cpd-6 0.003 µM, log10[R848 (µM)] 1",84.946
same,TLR7 reporter signal,"Cpd-6 0.003 µM, log10[R848 (µM)] 1.47712",98.5645
same,TLR7 reporter signal,"Cpd-6 0.003 µM, log10[R848 (µM)] 2",102.64
same,TLR7 reporter signal,"Cpd-6 0.003 µM, log10[R848 (µM)] 2.47712",101.614
same,TLR7 reporter signal,"Cpd-6 0.003 µM, log10[R848 (µM)] 3",100.614
same,TLR7 reporter signal,"Cpd-6 0.003 µM, log10[R848 (µM)] -0.522879",0.6697
same,TLR7 reporter signal,"Cpd-6 0.003 µM, log10[R848 (µM)] -1",0.7155
same,TLR7 reporter signal,"Cpd-6 0.003 µM, log10[R848 (µM)] -1.52288",0.0547
same,TLR7 reporter signal,"Cpd-6 0.003 µM, log10[R848 (µM)] -2",-0.2513
same,TLR7 reporter signal,"Cpd-6 0.01 µM, log10[R848 (µM)] -2",-0.4139
same,TLR7 reporter signal,"Cpd-6 0.1 μM, log10[R848 (µM)] 0",1.818
same,TLR7 reporter signal,"Cpd-6 0.1 μM, log10[R848 (µM)] 0.477121",11.9813
same,TLR7 reporter signal,"Cpd-6 0.1 μM, log10[R848 (µM)] 1",58.4894
same,TLR7 reporter signal,"Cpd-6 0.1 μM, log10[R848 (µM)] 1.47712",91.4766
same,TLR7 reporter signal,"Cpd-6 0.1 μM, log10[R848 (µM)] 2",100.668
same,TLR7 reporter signal,"Cpd-6 0.1 μM, log10[R848 (µM)] 2.47712",102.716
same,TLR7 reporter signal,"Cpd-6 0.1 μM, log10[R848 (µM)] 3",98.9371
same,TLR7 reporter signal,"Cpd-6 0.1 μM, log10[R848 (µM)] -0.522879",0.03031
same,TLR7 reporter signal,"Cpd-6 0.1 μM, log10[R848 (µM)] -1",0.4916
same,TLR7 reporter signal,"Cpd-6 0.1 μM, log10[R848 (µM)] -1.52288",0.6438
same,TLR7 reporter signal,"Cpd-6 0.1 μM, log10[R848 (µM)] -2",-0.1471
same,TLR7 reporter signal,"Cpd-6 0.3 μM, log10[R848 (µM)] 0",0.5455
same,TLR7 reporter signal,"Cpd-6 0.3 μM, log10[R848 (µM)] 0.477121",4.006
same,TLR7 reporter signal,"Cpd-6 0.3 μM, log10[R848 (µM)] 1",31.2508
same,TLR7 reporter signal,"Cpd-6 0.3 μM, log10[R848 (µM)] 1.47712",73.4318
same,TLR7 reporter signal,"Cpd-6 0.3 μM, log10[R848 (µM)] 2",95.1399
same,TLR7 reporter signal,"Cpd-6 0.3 μM, log10[R848 (µM)] 2.47712",101.486
same,TLR7 reporter signal,"Cpd-6 0.3 μM, log10[R848 (µM)] 3",99.1034
same,TLR7 reporter signal,"Cpd-6 0.3 μM, log10[R848 (µM)] -0.522879",-0.01626
same,TLR7 reporter signal,"Cpd-6 0.3 μM, log10[R848 (µM)] -1",0.3371
same,TLR7 reporter signal,"Cpd-6 0.3 μM, log10[R848 (µM)] -1.52288",0.2617
same,TLR7 reporter signal,"Cpd-6 0.3 μM, log10[R848 (µM)] -2",-0.3984
same,TLR7 reporter signal,"Cpd-6 1 μM, log10[R848 (µM)] 0",0.1648
same,TLR7 reporter signal,"Cpd-6 1 μM, log10[R848 (µM)] 0.477121",0.6756
same,TLR7 reporter signal,"Cpd-6 1 μM, log10[R848 (µM)] 1",11.4786
same,TLR7 reporter signal,"Cpd-6 1 μM, log10[R848 (µM)] 1.47712",45.6507
same,TLR7 reporter signal,"Cpd-6 1 μM, log10[R848 (µM)] 2",84.5912
same,TLR7 reporter signal,"Cpd-6 1 μM, log10[R848 (µM)] 2.47712",96.6131
same,TLR7 reporter signal,"Cpd-6 1 μM, log10[R848 (µM)] 3",99.4242
same,TLR7 reporter signal,"Cpd-6 1 μM, log10[R848 (µM)] -0.522879",-0.03548
same,TLR7 reporter signal,"Cpd-6 1 μM, log10[R848 (µM)] -1",0.7835
same,TLR7 reporter signal,"Cpd-6 1 μM, log10[R848 (µM)] -1.52288",0.4073
same,TLR7 reporter signal,"Cpd-6 1 μM, log10[R848 (µM)] -2",-0.4287
same,TLR7 reporter signal,"Cpd-6 3 μM, log10[R848 (µM)] 0",-0.1671
same,TLR7 reporter signal,"Cpd-6 3 μM, log10[R848 (µM)] 0.477121",-0.3319
same,TLR7 reporter signal,"Cpd-6 3 μM, log10[R848 (µM)] 1",1.145
same,TLR7 reporter signal,"Cpd-6 3 μM, log10[R848 (µM)] 1.47712",10.9886
same,TLR7 reporter signal,"Cpd-6 3 μM, log10[R848 (µM)] 2",45.7638
same,TLR7 reporter signal,"Cpd-6 3 μM, log10[R848 (µM)] 2.47712",76.6561
same,TLR7 reporter signal,"Cpd-6 3 μM, log10[R848 (µM)] 3",93.6623
same,TLR7 reporter signal,"Cpd-6 3 μM, log10[R848 (µM)] -0.522879",-0.0924
same,TLR7 reporter signal,"Cpd-6 3 μM, log10[R848 (µM)] -1",0.3881
same,TLR7 reporter signal,"Cpd-6 3 μM, log10[R848 (µM)] -1.52288",0.1811
same,TLR7 reporter signal,"Cpd-6 3 μM, log10[R848 (µM)] -2",-0.3984
same,TLR7 reporter signal,"Cpd-6 10 μM, log10[R848 (µM)] 0",-0.3585
same,TLR7 reporter signal,"Cpd-6 10 μM, log10[R848 (µM)] 0.477121",0.00887
same,TLR7 reporter signal,"Cpd-6 10 μM, log10[R848 (µM)] 1",-0.3311
same,TLR7 reporter signal,"Cpd-6 10 μM, log10[R848 (µM)] 1.47712",1.483
same,TLR7 reporter signal,"Cpd-6 10 μM, log10[R848 (µM)] 2",7.633
same,TLR7 reporter signal,"Cpd-6 10 μM, log10[R848 (µM)] 2.47712",30.5109
same,TLR7 reporter signal,"Cpd-6 10 μM, log10[R848 (µM)] 3",70.7738
same,TLR7 reporter signal,"Cpd-6 10 μM, log10[R848 (µM)] -0.522879",0.08501
same,TLR7 reporter signal,"Cpd-6 10 μM, log10[R848 (µM)] -1",0.6054
same,TLR7 reporter signal,"Cpd-6 10 μM, log10[R848 (µM)] -1.52288",0.5159
same,TLR7 reporter signal,"Cpd-6 10 μM, log10[R848 (µM)] -2",-0.6941
same,TLR7 reporter signal,"Cpd-6 30 μM, log10[R848 (µM)] 0",-0.8205
same,TLR7 reporter signal,"Cpd-6 30 μM, log10[R848 (µM)] 0.477121",-0.1671
same,TLR7 reporter signal,"Cpd-6 30 μM, log10[R848 (µM)] 1",-0.3932
same,TLR7 reporter signal,"Cpd-6 30 μM, log10[R848 (µM)] 1.47712",0.7037
same,TLR7 reporter signal,"Cpd-6 30 μM, log10[R848 (µM)] 2",0.5559
same,TLR7 reporter signal,"Cpd-6 30 μM, log10[R848 (µM)] 2.47712",4.178
same,TLR7 reporter signal,"Cpd-6 30 μM, log10[R848 (µM)] 3",28.3207
same,TLR7 reporter signal,"Cpd-6 30 μM, log10[R848 (µM)] -0.522879",-0.2084
same,TLR7 reporter signal,"Cpd-6 30 μM, log10[R848 (µM)] -1",0.05618
same,TLR7 reporter signal,"Cpd-6 30 μM, log10[R848 (µM)] -1.52288",0.1597
same,TLR7 reporter signal,"Cpd-6 30 μM, log10[R848 (µM)] -2",-0.9107
same,TLR7 reporter signal,"Cpd-6 100 μM, log10[R848 (µM)] 0",-0.4154
same,TLR7 reporter signal,"Cpd-6 100 μM, log10[R848 (µM)] 0.477121",-0.3459
same,TLR7 reporter signal,"Cpd-6 100 μM, log10[R848 (µM)] 1",-0.6712
same,TLR7 reporter signal,"Cpd-6 100 μM, log10[R848 (µM)] 1.47712",0.8663
same,TLR7 reporter signal,"Cpd-6 100 μM, log10[R848 (µM)] 2",0.5381
same,TLR7 reporter signal,"Cpd-6 100 μM, log10[R848 (µM)] 2.47712",4.485
same,TLR7 reporter signal,"Cpd-6 100 μM, log10[R848 (µM)] 3",25.5163
same,TLR7 reporter signal,"Cpd-6 100 μM, log10[R848 (µM)] -0.522879",-0.01478
same,TLR7 reporter signal,"Cpd-6 100 μM, log10[R848 (µM)] -1",0.612
same,TLR7 reporter signal,"Cpd-6 100 μM, log10[R848 (µM)] -1.52288",1.063
same,TLR7 reporter signal,"Cpd-6 100 μM, log10[R848 (µM)] -2",-0.5529
